# Results as given in BindingDB's records for doi:10.7270/Q2X065P9 (Methylgene, 2012).
# Values joined by “and” are separate entries in the source; they are usually repeats but may differ in a detail not shown here. Equal entries are not always repeated.
# What was measured:
# [1] = target: High affinity nerve growth factor receptor (Homo sapiens, UniProt P04629); assay: Inhibition Assay
# Excerpt: (§1) Inhibition assay using kinase inhibitors.
# [2] = target: Hepatocyte growth factor receptor (Homo sapiens, UniProt P08581); assay: Inhibition Assay
# Sequence of Hepatocyte growth factor receptor (P08581 whole entry): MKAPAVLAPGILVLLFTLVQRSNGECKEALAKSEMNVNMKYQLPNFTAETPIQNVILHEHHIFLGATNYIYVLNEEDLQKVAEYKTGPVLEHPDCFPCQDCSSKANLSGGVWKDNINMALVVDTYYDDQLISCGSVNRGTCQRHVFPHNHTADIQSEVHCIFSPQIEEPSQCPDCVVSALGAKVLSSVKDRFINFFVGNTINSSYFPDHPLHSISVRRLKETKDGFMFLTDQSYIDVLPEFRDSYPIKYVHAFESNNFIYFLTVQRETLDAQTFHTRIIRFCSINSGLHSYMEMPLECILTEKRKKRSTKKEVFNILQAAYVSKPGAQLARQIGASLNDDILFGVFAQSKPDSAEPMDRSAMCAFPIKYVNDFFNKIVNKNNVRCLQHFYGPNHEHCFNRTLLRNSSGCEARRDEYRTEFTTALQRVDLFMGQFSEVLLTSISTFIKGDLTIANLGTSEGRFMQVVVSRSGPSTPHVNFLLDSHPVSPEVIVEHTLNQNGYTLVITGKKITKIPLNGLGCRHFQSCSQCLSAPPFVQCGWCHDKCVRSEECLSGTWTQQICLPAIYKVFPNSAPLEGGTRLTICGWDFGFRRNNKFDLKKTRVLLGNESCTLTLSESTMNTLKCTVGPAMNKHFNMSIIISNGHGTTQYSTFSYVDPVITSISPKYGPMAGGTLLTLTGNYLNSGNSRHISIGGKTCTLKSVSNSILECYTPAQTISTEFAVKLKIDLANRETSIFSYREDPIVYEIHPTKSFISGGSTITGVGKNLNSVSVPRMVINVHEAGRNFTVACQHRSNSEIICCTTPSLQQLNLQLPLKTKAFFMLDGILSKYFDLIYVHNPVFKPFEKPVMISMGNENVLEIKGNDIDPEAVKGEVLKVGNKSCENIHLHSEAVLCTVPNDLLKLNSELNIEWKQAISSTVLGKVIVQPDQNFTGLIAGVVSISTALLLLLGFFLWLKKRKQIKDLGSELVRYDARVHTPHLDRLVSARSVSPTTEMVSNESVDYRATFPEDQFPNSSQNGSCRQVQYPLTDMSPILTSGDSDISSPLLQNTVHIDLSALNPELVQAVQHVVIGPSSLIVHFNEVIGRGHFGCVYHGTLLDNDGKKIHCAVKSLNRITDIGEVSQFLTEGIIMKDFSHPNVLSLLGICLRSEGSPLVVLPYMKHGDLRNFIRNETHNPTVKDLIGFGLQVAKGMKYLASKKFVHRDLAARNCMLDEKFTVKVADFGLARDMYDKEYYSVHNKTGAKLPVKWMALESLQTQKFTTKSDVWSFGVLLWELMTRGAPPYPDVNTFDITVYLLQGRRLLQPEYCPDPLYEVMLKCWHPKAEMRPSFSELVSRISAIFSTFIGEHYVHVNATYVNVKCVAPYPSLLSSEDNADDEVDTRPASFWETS
# Excerpt: as §1
# Sequence of High affinity nerve growth factor receptor (P04629 whole entry): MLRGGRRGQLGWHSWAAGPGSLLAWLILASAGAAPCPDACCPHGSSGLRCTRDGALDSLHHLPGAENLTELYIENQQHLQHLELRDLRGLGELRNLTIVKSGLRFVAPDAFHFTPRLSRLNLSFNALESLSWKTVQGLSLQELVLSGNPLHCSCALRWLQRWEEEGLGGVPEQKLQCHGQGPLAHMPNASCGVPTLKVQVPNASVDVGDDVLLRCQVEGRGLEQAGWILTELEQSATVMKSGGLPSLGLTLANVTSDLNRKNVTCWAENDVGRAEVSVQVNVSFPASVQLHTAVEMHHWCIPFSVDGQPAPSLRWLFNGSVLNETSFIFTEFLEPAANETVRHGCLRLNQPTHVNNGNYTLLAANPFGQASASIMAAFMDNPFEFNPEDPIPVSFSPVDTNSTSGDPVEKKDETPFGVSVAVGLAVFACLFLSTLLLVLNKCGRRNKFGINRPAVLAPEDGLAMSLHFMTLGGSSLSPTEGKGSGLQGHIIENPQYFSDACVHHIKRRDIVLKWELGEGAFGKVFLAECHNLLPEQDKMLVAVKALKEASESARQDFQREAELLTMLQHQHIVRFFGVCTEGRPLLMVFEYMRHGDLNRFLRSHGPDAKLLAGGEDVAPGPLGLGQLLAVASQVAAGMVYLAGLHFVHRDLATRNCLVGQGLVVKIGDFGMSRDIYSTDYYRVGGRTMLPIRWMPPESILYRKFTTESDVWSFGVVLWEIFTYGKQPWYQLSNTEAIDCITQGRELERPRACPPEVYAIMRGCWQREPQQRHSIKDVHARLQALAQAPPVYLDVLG
Structure (SMILES),IC50 [1],IC50 [2]
CCn1cnc(-c2cc3nccc(Oc4ccc(NC(=O)N5CCN(c6ccccc6)C5=O)cc4F)c3s2)c1,,10 nM
"CC(=O)Nc1cc(Oc2ccc(NC(=O)N3CCN(c4ccccc4)C3=O)cc2)ccn1 [2-oxoimidazolidine-1-carboxamide, 5]",4 nM,
COc1cc2nccc(Oc3ccc(NC(=O)N4CCN(c5ccccc5)C4=O)cc3F)c2cc1OC,,10 nM
"Nc1cc(Oc2ccc(NC(=O)N3CCN(c4ccccc4)C3=O)cc2)ccn1 [2-oxoimidazolidine-1-carboxamide, 13]",20 nM,

# The remaining lines, values ahead:
IC50 [1],IC50 [2],Structure (SMILES)
2 nM,,"CNC(=O)Nc1cc(Oc2ccc(NC(=O)N3CCN(c4ccc(F)cc4)C3=O)cc2)ccn1 [2-oxoimidazolidine-1-carboxamide, 16]"
5 nM,,"CNC(=O)Nc1cc(Oc2ccc(NC(=O)N3CCN(c4ccccc4)C3=O)cc2)ccn1 [2-oxoimidazolidine-1-carboxamide, 15]"
,310 nM and 2500 nM,"CC(=O)Nc1cc(Oc2ccc(NC(=O)N3CCN(c4ccccc4)C3=O)cc2F)ccn1 [Oxo-3-phenylimidazolidine-1-carboxamide, 5]"
3 nM,,"CC(=O)Nc1cc(Oc2ccc(NC(=O)N3CCN(c4ccc(F)cc4)C3=O)cc2)ccn1 [2-oxoimidazolidine-1-carboxamide, 14]"
4 nM,,"O=C(NCCN1CCCC1)Nc1cc(Oc2ccc(NC(=O)N3CCN(c4ccc(F)cc4)C3=O)cc2)ccn1 [2-oxoimidazolidine-1-carboxamide, 17]"
,150 nM,"O=C(Nc1cc(Oc2ccc(NC(=O)N3CCN(c4ccccc4)C3=O)cc2F)ncn1)N1CCCC1 [Oxo-3-phenylimidazolidine-1-carboxamide, 3]"
,230 nM,"O=C(Nc1cc(Oc2ccc(NC(=O)N3CCN(c4ccccc4)C3=O)cc2F)ccn1)N1CCCC1 [Oxo-3-phenylimidazolidine-1-carboxamide, 4]"
